Reference: patent publication US20080009802A1, “Method of treating acne with stratum corneum piercing device” (priority 2005, published 2008)
Read-outs that look alike come from different tables or passages of the source.

Test system: skin site on subject's forearm or face
Details: for ENHANCED ACTIVE DELIVERY (HISTAMINE RESPONSE): about 10 microliters 0.10% wt/wt histamine, visual inspection after 10 minutes
Description: The microprotrusion disk of Example 1 was affixed on the desired skin site on subject's forearm or face. The implement of Example 3 was used to push the microprotrusion disk through stratum corneum with predetermined impact pressure modified by the choice of spring. The impact pressure was measured using a digital force meter (Model DFM 10, Chatillon, Greensboro, N.C.). The contact area between the implement device and skin was determined to be about 1.2 cm in diameter. The pressure per unit area was calculated from the ratio of pressure/contact area. The disk was removed immediately after the application. Both subject sensation (e.g., pain and sting) and erythema of the testing site were recorded immediately after the application, and is reported in Table 1.
The reaction of the subject's skin to histamine (e.g., erythema) was recorded after 10 minutes following histamine application to the treatment site by visual inspection. Additional inspection followed if a reaction was detected at 10 minutes. Controls were run by applying histamine solution to untreated skin sites (e.g., sites not pierced by the microprotrusion members). All test sites were graded visually for the evidence of post-inflammatory hyperpigmentation (PIH) for up to at least 3 weeks.

SMILES: NCCc1c[nH]cn1 [histamine]
- skin's reaction to topically applied histamine (control test sites: untreated skin, not pierced by the microprotrusion members): did not result in erythema
- skin's reaction to topically applied histamine (following microprotrusion treatment): manifested in erythema
- ENHANCED ACTIVE DELIVERY (HISTAMINE RESPONSE) (subject 1/Forearm, microprotrusion length 225 micrometer, 8 lbs/cm^2): Yes,
- ENHANCED ACTIVE DELIVERY (HISTAMINE RESPONSE) (subject 2/Forearm, microprotrusion length 225 micrometer, 6 lbs/cm^2): Yes,
- ENHANCED ACTIVE DELIVERY (HISTAMINE RESPONSE) (subject 3/Cheek (bone), microprotrusion length 185 micrometer, 3.2 lbs/cm^2): Yes, but not
- ENHANCED ACTIVE DELIVERY (HISTAMINE RESPONSE) (subject 4/Forearm, microprotrusion length 185 micrometer, 4.6 lbs/cm^2): Yes,
- ENHANCED ACTIVE DELIVERY (HISTAMINE RESPONSE) (subject 5/Forearm, microprotrusion length 185 micrometer, 8 lbs/cm^2): Yes,
- ENHANCED ACTIVE DELIVERY (HISTAMINE RESPONSE) (subject 6/Forehead, microprotrusion length 145 micrometer, 5 lbs/cm^2): Yes,
